Laboratory results as given in patent US20250032490A1, “THERAPEUTIC REGIMENS FOR TREATMENT OF PAROXYSMAL NOCTURNAL HEMOGLOBINURIA” (Achillion Pharmaceuticals, Inc., priority 2017, published 2025).

How the values were obtained:
[1] = tested on: C3 fragment deposition on artificial PNH cells; test: C3 fragment deposition on artificial PNH cells (flow cytometry); format: cell-based; conditions: 32% acidified C5-depleted normal human serum; read-out: IC50, inhibition of C3 fragment deposition on artificial PNH cells
Method: C5-depleted normal human serum (C5-Dpl NHS), gelatin veronal buffer (GVB) without Ca^++ and Mg^++ (GVB^0), 100 mM MgCl2+100 mM EGTA (MgEGTA) were obtained from Complement Technology Inc. (Tyler, TX). GVB^0·MgEGTA was prepared by mixing GVB^0 and 100 mM MgEGTA in a 9:1 ratio. FITC-conjugated anti-C3c antibody (cat #ab4212) and Alexa Fluor® 647-conjugated anti human CD59 antibody (cat #:ab187769) were purchased from Abcam (Cambridge, MA). […] Ferrone, and F. Mercuriali, The Action of Two Sulfhydryl Compounds on Normal Human Red Cells. Relationship to Red Cells of Paroxysmal Nocturnal Hemoglobinuria. Blood, 1965. 25: p. 502-10). After AET treatment, artificial PNH erythrocytes were centrifuged, supernatant was aspirated and cells were thoroughly washed with phosphate buffered saline (PBS) 3 times followed by washing with GVB^0 buffer ([…]) for additional 3 times. […] C3 fragment deposition on the surface of the erythrocytes was assessed by flow cytometry with BD Accuri C6 cytometer (BD Biosciences, San Jose, CA). […] IC50 values from each experiment were determined by curve-fitting of experimental data (the % C3 fragment-positive cells at increasing concentrations of inhibitor) to the four-parameter sigmoidal dose-response equation using non-linear regression analysis (Prism Software, GraphPad, La Jolla, CA).

PNH erythrocytes = test: CAP-mediated hemolysis assay with PNH erythrocytes (subject A); format: cell-based, human; conditions: for Inhibition (%) of CAP activity: Compound 1 0 μM
Method: Complement-preserved normal human serum (NHS) from an individual donor of ABO blood group type AB (NHS-AB) was purchase from BioreclamationIVT (Westbury, NY). Gelatin veronal buffer (GVB), pH 7.3, without Ca^++ and Mg^++ (GVB^0) and 100 mM MgCl2 +100 mM EGTA (MgEGTA) were obtained from Complement Technology Inc. (Tyler, TX).
GVB^0·MgEGTA was prepared by mixing GVB^0 and 100 mM MgEGTA in a 9:1 ratio. PNH erythrocytes were used within five days of blood collection; before assay cells were collected by centrifugation at 800×g and 4° C. for 3 minutes and resuspended in fresh cold GVB^0·MgEGTA to a density of 5×10^8 cells/mL.
50 μL of NHS-AB was added to each well. The plates were mixed and incubated at room temperature for 5 minutes. 24 μL of this NHS-AB with compound was then transferred to duplicate wells of V-bottom microtiter plates each containing 76 μL GVB0·MgEGTA. 20 μL PNH erythrocytes was then added to each well and the plates were sealed, mixed, and incubated at 37° C. for 30 minutes with an added shaking for 15 minutes. […] Following incubation, PNH cells were removed by centrifugation at 800×g and 4° C. for 3 minutes, 100 μL supernatant per well was transferred to flat-bottom clear microtiter plates, and A405 of the supernatant was measured in a Molecular Devices Spectramax Plus plate reader.
Combinatorial interactions were analyzed via two methods.
Inhibition was analyzed by the method of Prichard and Shipman (Prichard, M. N. and C. Shipman, Jr. A Three-Dimensional Model to Analyze Drug-Drug Interactions. Antiviral Research 1990, 14:181-205) Three-dimensional surface graphs of each experiment were generated and analyzed using an Excel spreadsheet program adapted from the MacSynergy II spreadsheet (University of Alabama, Birmingham, AL). The X-axis and Y-axis of each surface graph represent the concentrations of the two test compounds, and the Z-axis represents the difference between measured inhibition and a theoretically determined additive inhibition. For an additive relationship, the surface graph resembles a horizontal plane at Z=0, whereas positive surface peaks indicate greater inhibition than expected and therefore synergy, and negative surface peaks indicate less inhibition than expected and therefore antagonism.
Synergy and antagonism volumes were calculated separately as the summed volumes of peaks respectively above and below the Z=0 plane. Volumes were determined using 95% confidence limits to assure significance.
Inhibition was analyzed by the method of Chou and Talalay (Chou, T.-C. and P. Talalay. Analysis of Combined Drug Effects: A New Look at a Very Old Problem. Trends Pharmacol. Sci. 1983, 4:450-454; Chou, T. C. Theoretical basis, experimental design, and computerized simulation of synergism and antagonism in drug combination studies. Pharmacological Reviews 2006, 58:621-681). Analysis using the median-effect equation of Chou and Talalay was performed with CompuSyn software (ComboSyn, Inc, Paramus, NJ). […] Combination index (CI) values were determined at inhibition values of 50%, 75%, and 90%.

[2] = tested on: C3 fragment deposition on rabbit erythrocytes; test: C3 fragment deposition on rabbit erythrocytes (flow cytometry); format: cell-based; conditions: 20% C5-depleted normal human serum; read-out: IC50, inhibition of C3 fragment deposition on rabbit erythrocytes
Method: Rabbit erythrocytes, C5-depleted normal human serum (C5-Dpl NHS), gelatin veronal buffer (GVB) without Ca^++ and Mg (GVB^0), 100 mM MgCl2+100 mM EGTA (MgEGTA) were obtained from Complement Technology Inc. (Tyler, TX). GVB^0·MgEGTA was prepared by mixing GVB^0 and 100 mM MgEGTA in a 9:1 ratio. FITC-conjugated anti-C3c antibody (cat#ab4212) and Alexa Fluor® 647-conjugated anti human CD59 antibody (cat#: ab187769) were purchased from Abcam (Cambridge, MA).
Reactions were incubated at 37° C. for 15 minutes, the reactions were quenched by addition of EDTA at a final concentration of 20 mM. Cells were stained with a FITC-conjugated anti-C3c antibody at a dilution of 1:200 and C3 fragment deposition on the surface of rabbit erythrocytes was assessed by flow cytometry with BD Accuri C6 cytometer (BD Biosciences, San Jose, CA). Forward and side scatter parameters were used to gate intact erythrocytes. Controls included cells labeled with FITC-conjugated antibody isotype control. IC50 values from each experiment were determined by curve-fitting of experimental data (the % C3 fragment-positive cells at increasing concentrations of inhibitor) to the four-parameter sigmoidal dose-response equation using non-linear regression analysis (Prism Software, GraphPad, La Jolla, CA).

For `CC[C@H](C)[C@H](N)C(=O)N[C@H]1CSSC[C@@H](C(=O)N[C@H](C(N)=O)[C@@H](C)O)NC(=O)[C@H](CCCN=C(N)N)NC(=O)[C@H](Cc2cnc[nH]2)NC(=O)[C@H](Cc2cnc[nH]2)NC(=O)CNC(=O)[C@H](Cc2c[nH]c3ccccc23)NC(=O)[C@H](CC(=O)O)NC(=O)[C@H](CCC(N)=O)NC(=O)[C@H](C(C)C)NC(=O)[C@H](C(C)C)NC1=O` [Compstatin, reference compound], the IC50 [1] was 2200 nM, the “Inhibition (%) of CAP activity” value (PNH erythrocytes; Experiment 2, Compstatin 0-300 μM) was 0% and the “Inhibition (%) of CAP activity” value (PNH erythrocytes; Experiment #1, Compstatin 0-300 μM) was 0%. The “inhibition at the high end of the test concentration ranges” value (PNH erythrocytes; single agent, PNH erythrocytes) was “complete inhibition” and the IC50 [2] was 1400 nM.

B1: Eculizumab: monoclonal antibody complement inhibitor of the terminal component C5; only approved therapy for PNH (antibody, chains of the INN, looked up)
heavy: QVQLVQSGAEVKKPGASVKVSCKASGYIFSNYWIQWVRQAPGQGLEWMGEILPGSGSTEYTENFKDRVTMTRDTSTSTVYMELSSLRSEDTAVYYCARYFFGSSPNWYFDVWGQGTLVTVSSASTKGPSVFPLAPCSRSTSESTAALGCLVKDYFPEPVTVSWNSGALTSGVHTFPAVLQSSGLYSLSSVVTVPSSNFGTQTYTCNVDHKPSNTKVDKTVERKCCVECPPCPAPPVAGPSVFLFPPKPKDTLMISRTPEVTCVVVDVSQEDPEVQFNWYVDGVEVHNAKTKPREEQFNSTYRVVSVLTVLHQDWLNGKEYKCKVSNKGLPSSIEKTISKAKGQPREPQVYTLPPSQEEMTKNQVSLTCLVKGFYPSDIAVEWESNGQPENNYKTTPPVLDSDGSFFLYSRLTVDKSRWQEGNVFSCSVMHEALHNHYTQKSLSLSLG
light: DIQMTQSPSSLSASVGDRVTITCGASENIYGALNWYQQKPGKAPKLLIYGATNLADGVPSRFSGSGSGTDFTLTISSLQPEDFATYYCQNVLNTPLTFGQGTKVEIKRTVAAPSVFIFPPSDEQLKSGTASVVCLLNNFYPREAKVQWKVDNALQSGNSQESVTEQDSKDSTYSLSSTLTLSKADYEKHKVYACEVTHQGLSSPVTKSFNRGEC
For B1, the “Inhibition (%) of CAP activity” value (PNH erythrocytes; Experiment 2, Eculizumab 0-400 μg/mL) was 0% and the “Inhibition (%) of CAP activity” value (PNH erythrocytes; Experiment #1, Eculizumab 0-400 μg/mL) was 0%.
